Experimental findings from patent US10590140B2, “Tetrahydropyrimidodiazepine and dihydropyridodiazepine compounds for treating pain and pain related conditions” (ESTEVE PHARMACEUTICALS, S.A., priority 2016, dated 2020) are described below.

Molecules are shown by their SMILES. Where two headings read alike, the source gives them in different places.

The target of assay [1] is human norepinephrine transporter (NET) (Homo sapiens (Human), UniProt P23975). Briefly: Binding assay to human norepinephrine transporter (NET) ([3H]-Nisoxetin). Conditions: Table 2, dual compounds; [3H]-Nisoxetin binding. The method, then:
Binding Assay to Human Norepinephrine Transporter (NET).
Human norepinephrine transporter (NET) enriched membranes (5 μg) were incubated with 5 nM of radiolabeled [3H]-Nisoxetin in assay buffer containing 50 mM Tris-HCl, 120 mM NaCl, 5 mM KCl, pH 7.4.
NSB (non specific binding) was measured by adding 1 μM. After 60 min incubation at 4° C., binding reaction was terminated by filtering through Multiscreen GF/C (Millipore) presoaked in 0.5% polyethyleneimine in Vacuum Manifold Station, followed by 3 washes with ice-cold filtration buffer containing 50 mM Tris-HCl, 0.9% NaCl, pH 7.4.
Filter plates were dried at 60° C. for 1 hour and 30 μl of scintillation cocktail were added to each well before radioactivity reading.

Assay [2] has as its target human α2δ-1 subunit of Cav2.2 calcium channel (Homo sapiens (Human), UniProt P54289). Put plainly: Binding assay to human α2δ-1 subunit of Cav2.2 calcium channel ([3H]-Gabapentin). Conditions: read-out: Ki (nM) α2δ-1. The method in brief: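 Radioactivity on dried GF/C filters quantified by scintillation after filtration and three cold Tris-HCl (pH 7.4) washes. Incubation ran 60 min at 27° C with [3H]-gabapentin; 10 μM pregabalin gave nonspecific binding.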

The mark [3] stands for this setting: Table 2, dual compounds, [3H]-Gabapentin binding.
Setting [4] is: binding to α2δ-1, [3H]-Gabapentin.

Chain of human α2δ-1 subunit of Cav2.2 calcium channel (P54289 25-1103): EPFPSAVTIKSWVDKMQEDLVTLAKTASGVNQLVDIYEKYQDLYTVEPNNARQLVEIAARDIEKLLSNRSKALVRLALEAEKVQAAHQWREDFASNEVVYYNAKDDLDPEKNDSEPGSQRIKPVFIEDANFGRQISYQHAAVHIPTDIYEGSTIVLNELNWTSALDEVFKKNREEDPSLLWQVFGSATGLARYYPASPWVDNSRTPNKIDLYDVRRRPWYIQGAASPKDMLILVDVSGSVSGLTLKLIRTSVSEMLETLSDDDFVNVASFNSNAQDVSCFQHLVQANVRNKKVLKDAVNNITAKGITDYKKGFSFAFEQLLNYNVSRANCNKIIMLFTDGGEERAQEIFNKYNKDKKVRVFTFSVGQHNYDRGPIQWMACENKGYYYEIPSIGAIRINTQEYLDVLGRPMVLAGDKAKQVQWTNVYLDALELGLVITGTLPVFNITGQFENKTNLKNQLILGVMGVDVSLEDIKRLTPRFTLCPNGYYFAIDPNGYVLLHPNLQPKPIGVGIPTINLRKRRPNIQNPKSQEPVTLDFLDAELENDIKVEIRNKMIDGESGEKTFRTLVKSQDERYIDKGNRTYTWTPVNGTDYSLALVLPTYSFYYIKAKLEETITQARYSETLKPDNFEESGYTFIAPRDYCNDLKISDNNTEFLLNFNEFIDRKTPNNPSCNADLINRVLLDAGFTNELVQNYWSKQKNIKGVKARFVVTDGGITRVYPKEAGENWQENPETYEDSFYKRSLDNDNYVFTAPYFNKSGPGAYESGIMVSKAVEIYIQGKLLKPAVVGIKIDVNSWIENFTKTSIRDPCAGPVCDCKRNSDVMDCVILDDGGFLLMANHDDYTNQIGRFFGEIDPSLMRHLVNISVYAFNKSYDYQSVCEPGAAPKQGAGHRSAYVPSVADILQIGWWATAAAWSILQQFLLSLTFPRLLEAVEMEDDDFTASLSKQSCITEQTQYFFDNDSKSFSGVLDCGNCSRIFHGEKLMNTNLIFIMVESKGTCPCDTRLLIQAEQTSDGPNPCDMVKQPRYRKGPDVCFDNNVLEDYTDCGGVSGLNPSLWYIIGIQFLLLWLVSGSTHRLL
Chain of human norepinephrine transporter (NET) (P23975 whole entry): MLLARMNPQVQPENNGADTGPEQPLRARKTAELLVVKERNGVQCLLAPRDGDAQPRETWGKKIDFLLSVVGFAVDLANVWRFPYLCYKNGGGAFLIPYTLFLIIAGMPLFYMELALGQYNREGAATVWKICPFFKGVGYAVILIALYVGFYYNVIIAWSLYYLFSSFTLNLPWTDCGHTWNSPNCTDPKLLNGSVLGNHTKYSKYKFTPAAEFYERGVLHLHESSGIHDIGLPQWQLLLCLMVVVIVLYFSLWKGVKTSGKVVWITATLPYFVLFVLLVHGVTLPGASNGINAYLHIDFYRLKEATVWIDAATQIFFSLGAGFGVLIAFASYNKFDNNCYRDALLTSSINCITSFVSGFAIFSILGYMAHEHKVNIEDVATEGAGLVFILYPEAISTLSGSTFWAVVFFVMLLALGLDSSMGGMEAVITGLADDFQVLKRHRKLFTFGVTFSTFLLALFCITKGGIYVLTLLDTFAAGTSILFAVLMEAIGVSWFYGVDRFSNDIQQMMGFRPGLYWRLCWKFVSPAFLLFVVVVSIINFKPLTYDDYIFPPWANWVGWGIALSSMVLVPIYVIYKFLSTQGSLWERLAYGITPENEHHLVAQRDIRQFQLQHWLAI

Turning to `CNCCC(Oc1cccc(N2CCN(C)c3nc(SC)ncc3C2=O)c1)c1ccccc1` (stereo not drawn) [Example 151, 9-methyl-6-(3-(3-(methylamino)-1-phenylpropoxy)phenyl)-2-(methylthio)-6,7,8,9-tetrahydro-5H-pyrimido[4,5-e][1,4]diazepin-5-one], the values for the Ki in assay [1], in assay [2] (setting [3]) and in assay [2] (setting [4]) were less than 100 nM, 500 to 3000 nM and 500 to 3000 nM, respectively. In the case of `CNCC[C@@H](Oc1cccc(N2CCN(C)c3nc(SC)ncc3C2=O)c1)c1ccccc1` [Example 152, (R)-9-methyl-6-(3-(3-(methylamino)-1-phenylpropoxy)phenyl)-2-(methylthio)-6,7,8,9-tetrahydro-5H-pyrimido[4,5-e][1,4]diazepin-5-one], the Ki is 100 to 500 nM in assay [1], 500 to 3000 nM in assay [2] (setting [3]) and 500 to 3000 nM in assay [2] (setting [4]).

For `CNCC[C@H](Oc1cccc(N2CCN(C)c3nc(SC)ncc3C2=O)c1)c1ccccc1` [Example 153, (S)-9-methyl-6-(3-(3-(methylamino)-1-phenylpropoxy)phenyl)-2-(methylthio)-6,7,8,9-tetrahydro-5H-pyrimido[4,5-e][1,4]diazepin-5-one], the Ki in assay [1] is less than 100 nM; in assay [2] (setting [3]), greater than 3000 nM; in assay [2] (setting [4]), greater than 3000 nM.

As for `CNCC[C@H](Oc1ccc(CN2CCN(C)c3ccncc3C2=O)cc1)c1ccccc1` [Example 377, (S)-1-methyl-4-(4-(3-(methylamino)-1-phenylpropoxy)benzyl)-1,2,3,4-tetrahydro-5H-pyrido[4,3-e][1,4]diazepin-5-one], the Ki in assay [2] (setting [4]) is 500 to 3000 nM. The same measure, in the same setting: the result for `CNCCC(Oc1ccc(CN2CCN(C)c3nc(OC)ncc3C2=O)cc1)c1nccs1` (stereo not drawn) [Example 390, 2-methoxy-9-methyl-6-(4-(3-(methylamino)-1-(thiazol-2-yl)propoxy)benzyl)-6,7,8,9-tetrahydro-5H-pyrimido[4,5-e][1,4]diazepin-5-one] reads 100 to 500 nM; that for `CNCC[C@H](Oc1ccc(CN2CCN(C)c3nc(OC)ncc3C2=O)cc1C)c1cccs1` [Example 393, (S)-2-methoxy-9-methyl-6-(3-methyl-4-(3-(methylamino)-1-(thiophen-2-yl)propoxy)benzyl)-6,7,8,9-tetrahydro-5H-pyrimido[4,5-e][1,4]diazepin-5-one], 100 to 500 nM; that for `CCN1CCN(Cc2ccc(O[C@@H](CCNC)c3cccs3)cc2)C(=O)c2cnc(OC)nc21` [Example 395], 100 to 500 nM. On the same count and under the same terms, the result for `CNCCC(Oc1ccc(CN2CCN(C)c3nc(OC)ncc3C2=O)cc1)c1cc(C)cs1` (stereo not drawn) [Example 396, 2-methoxy-9-methyl-6-(4-(3-(methylamino)-1-(4-methylthiophen-2-yl)propoxy)benzyl)-6,7,8,9-tetrahydro-5H-pyrimido[4,5-e][1,4]diazepin-5-one] reads 100 to 500 nM; that for `CNCC[C@H](Oc1ccc(CN2CCN(C)c3nc(OC)ncc3C2=O)c(C)c1)c1cccs1` [Example 397, (S)-2-methoxy-9-methyl-6-(2-methyl-4-(3-(methylamino)-1-(thiophen-2-yl)propoxy)benzyl)-6,7,8,9-tetrahydro-5H-pyrimido[4,5-e][1,4]diazepin-5-one], less than 100 nM; that for `CCN1CCN(Cc2ccc(O[C@@H](CCNC)c3cccs3)cc2)C(=O)c2cncnc21` [Example 398, (S)-9-ethyl-6-(4-(3-(methylamino)-1-(thiophen-2-yl)propoxy)benzyl)-6,7,8,9-tetrahydro-5H-pyrimido[4,5-e][1,4]diazepin-5-one], 100 to 500 nM. As for `CNCC[C@H](Oc1ccc(CN2CCN(C)c3c(F)cncc3C2=O)cc1)c1cccs1` [Example 399, (S)-9-fluoro-1-methyl-4-(4-(3-(methylamino)-1-(thiophen-2-yl)propoxy)benzyl)-1,2,3,4-tetrahydro-5H-pyrido[4,3-e][1,4]diazepin-5-one], the Ki in assay [2] (setting [4]) is 100 to 500 nM. `CNCC[C@H](Oc1ccc(CN2CCN(C)c3c(Cl)cncc3C2=O)cc1)c1cccs1` [Example 400, (S)-9-chloro-1-methyl-4-(4-(3-(methylamino)-1-(thiophen-2-yl)propoxy)benzyl)-1,2,3,4-tetrahydro-5H-pyrido[4,3-e][1,4]diazepin-5-one]: the Ki in assay [2] (setting [4]) is 500 to 3000 nM. With `CNCC[C@H](Oc1ccc(CN2CCN(C)c3nc(OC)ncc3C2=O)c(F)c1)c1cccs1` [Example 401, (S)-6-(2-fluoro-4-(3-(methylamino)-1-(thiophen-2-yl)propoxy)benzyl)-2-methoxy-9-methyl-6,7,8,9-tetrahydro-5H-pyrimido[4,5-e][1,4]diazepin-5-one], in assay [2] (setting [4]), the Ki is less than 100 nM.

In the case of `CCNc1ncc2c(n1)N(C)CCN(Cc1ccccc1COC(CCNC)c1ccccc1)C2=O` (stereo not drawn) [Example 404, 2-(ethylamino)-9-methyl-6-(2-((3-(methylamino)-1-phenylpropoxy)methyl)benzyl)-6,7,8,9-tetrahydro-5H-pyrimido[4,5-e][1,4]diazepin-5-one], in assay [2] (setting [4]), the Ki was greater than 3000 nM. Take `CCNc1ncc2c(n1)N(C)CCN(Cc1cccc(OC(CCNC)c3ccccc3)c1)C2=O` (stereo not drawn) [Example 407, 2-(ethylamino)-9-methyl-6-(3-(3-(methylamino)-1-phenylpropoxy)benzyl)-6,7,8,9-tetrahydro-5H-pyrimido[4,5-e][1,4]diazepin-5-one]: the Ki in assay [2] (setting [4]) fell in the range of 100 to 500 nM. The same measure, in the same setting: with `CCNc1ncc2c(n1)N(C)CCN(Cc1ccccc1OC(CCNC)c1ccccc1)C2=O` (stereo not drawn) [Example 409, 2-(ethylamino)-9-methyl-6-(2-(3-(methylamino)-1-phenylpropoxy)benzyl)-6,7,8,9-tetrahydro-5H-pyrimido[4,5-e][1,4]diazepin-5-one] the figure was greater than 3000 nM. On the same count and under the same terms, the result for `CCNc1ncc2c(n1)N(C)CCN(Cc1ccccc1OC(CNC)c1ccccc1)C2=O` (stereo not drawn) [Example 410, 2-(ethylamino)-9-methyl-6-(2-(2-(methylamino)-1-phenylethoxy)benzyl)-6,7,8,9-tetrahydro-5H-pyrimido[4,5-e][1,4]diazepin-5-one] reads greater than 3000 nM; that for `CCNc1ncc2c(n1)N(C)CCN(Cc1ccccc1COC(CNC)c1ccccc1)C2=O` (stereo not drawn) [Example 412, 2-(ethylamino)-9-methyl-6-(2-((2-(methylamino)-1-phenylethoxy)methyl)benzyl)-6,7,8,9-tetrahydro-5H-pyrimido[4,5-e][1,4]diazepin-5-one], greater than 3000 nM. On the same count and under the same terms, the result for `CNCCC(OCc1ccccc1CN1CCN(C)c2nc(C)ncc2C1=O)c1ccccc1` (stereo not drawn) [Example 421, 2,9-dimethyl-6-(2-((3-(methylamino)-1-phenylpropoxy)methyl)benzyl)-6,7,8,9-tetrahydro-5H-pyrimido[4,5-e][1,4]diazepin-5-one] reads greater than 3000 nM; that for `CNCC(OCc1ccccc1CN1CCN(C)c2nc(C)ncc2C1=O)c1ccccc1` (stereo not drawn) [Example 424, 2,9-dimethyl-6-(2-((2-(methylamino)-1-phenylethoxy)methyl)benzyl)-6,7,8,9-tetrahydro-5H-pyrimido[4,5-e][1,4]diazepin-5-one], greater than 3000 nM; that for `CNCCC(Oc1cccc(CN2CCN(C)c3ncncc3C2=O)c1)c1ccccc1` (stereo not drawn) [Example 429, 9-methyl-6-(3-(3-(methylamino)-1-phenylpropoxy)benzyl)-6,7,8,9-tetrahydro-5H-pyrimido[4,5-e][1,4]diazepin-5-one], greater than 3000 nM. `CNCCC(Oc1ccccc1CN1CCN(C)c2ncncc2C1=O)c1ccccc1` (stereo not drawn) [Example 431, 9-methyl-6-(2-(3-(methylamino)-1-phenylpropoxy)benzyl)-6,7,8,9-tetrahydro-5H-pyrimido[4,5-e][1,4]diazepin-5-one]: in assay [2] (setting [4]), the Ki was greater than 3000 nM.

For the molecule `CNCC(Oc1ccccc1CN1CCN(C)c2ncncc2C1=O)c1ccccc1` (stereo not drawn) [Example 432, 9-methyl-6-(2-(2-(methylamino)-1-phenylethoxy)benzyl)-6,7,8,9-tetrahydro-5H-pyrimido[4,5-e][1,4]diazepin-5-one], the Ki in assay [2] (setting [4]) was greater than 3000 nM.

For the molecule `CCNc1ncc2c(n1)N(C)CCN(c1cccc(CCN3CCC(c4ccccc4)(N(C)C)CC3)c1)C2=O` [Example 438, 6-(3-(2-(4-(dimethylamino)-4-phenylpiperidin-1-yl)ethyl)phenyl)-2-(ethylamino)-9-methyl-6,7,8,9-tetrahydro-5H-pyrimido[4,5-e][1,4]diazepin-5-one], the Ki in assay [2] (setting [4]) is 500 to 3000 nM.

With `CCNc1ncc2c(n1)N(C)CCN(c1cccc(OCCN3CCCCC3)c1)C2=O` [Example 439, 2-(ethylamino)-9-methyl-6-(3-(2-(piperidin-1-yl)ethoxy)phenyl)-6,7,8,9-tetrahydro-5H-pyrimido[4,5-e][1,4]diazepin-5-one], the Ki in assay [2] (setting [4]) is 500 to 3000 nM.

Take `CCNc1ncc2c(n1)N(C)CCN(c1cccc(OCCN3CCOCC3)c1)C2=O` [Example 440, 2-(ethylamino)-9-methyl-6-(3-(2-morpholinoethoxy)phenyl)-6,7,8,9-tetrahydro-5H-pyrimido[4,5-e][1,4]diazepin-5-one]: in assay [2] (setting [4]), the Ki lay within 500 to 3000 nM.

For the molecule `CCNc1ncc2c(n1)N(C)CCN(c1cccc(-c3nnc(CN4CCC(c5ccccc5)(N(C)C)CC4)o3)c1)C2=O` [Example 441, 6-(3-(5-((4-(dimethylamino)-4-phenylpiperidin-1-yl)methyl)-1,3,4-oxadiazol-2-yl)phenyl)-2-(ethylamino)-9-methyl-6,7,8,9-tetrahydro-5H-pyrimido[4,5-e][1,4]diazepin-5-one], the Ki in assay [2] (setting [4]) was 100 to 500 nM.
